Measurements as given in PMC7307922 (Journal of Medicinal Chemistry, 2020).
≈ marks a conversion by molar mass, not a printed value. Where “and” joins values, the source holds several entries; their conditions need not be identical. Identical values can stand only once.

Columns and labels:
[1] = log D7.4 measurement; type: physicochemical; conditions: pH 7.4; read-out: logD7.4
Experimental: (§1) Solubility and log D7.4 measurements were performed in accordance to the previously published procedures.[35]

[2] = target: T1, hFFA3 (Homo sapiens, UniProt O14843); assay: cell-based; conditions: for Emax: HEK293, read-out: cAMP Emax; for cAMP pEC50 / EC50: hFFA3; for cAMP pEC50: compound alone, mean of ≥3 independent experiments ± standard error; for EC50: read-out: EC50 (cAMP assay)
T1 sequence (O14843 1-346): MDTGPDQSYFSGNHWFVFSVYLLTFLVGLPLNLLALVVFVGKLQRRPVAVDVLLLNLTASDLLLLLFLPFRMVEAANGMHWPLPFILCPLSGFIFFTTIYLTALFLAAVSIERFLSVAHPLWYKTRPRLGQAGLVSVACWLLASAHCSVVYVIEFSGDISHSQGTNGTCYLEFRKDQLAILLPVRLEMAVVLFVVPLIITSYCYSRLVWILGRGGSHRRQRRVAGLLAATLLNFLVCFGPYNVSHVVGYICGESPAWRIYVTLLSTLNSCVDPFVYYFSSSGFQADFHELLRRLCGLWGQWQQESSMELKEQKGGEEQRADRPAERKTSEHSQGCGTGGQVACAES
In short: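 HEK293 Flp-In T-REx cells stably carrying FFA3-eYFP, expression induced overnight with doxycycline, 3000 cells/well; compounds co-incubated 1 h to inhibit 0.3 μM forskolin-induced cAMP, read with HTRF cAMP kit.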

[3] = Kinetic aqueous solubility in PBS pH 7.4; type: physicochemical; conditions: for solubility: phosphate buffered saline, pH 7.4, read-out: Aq. solub.
Experimental: as §1

[4] = target: T2, human FFA2 (Homo sapiens, UniProt O15552); assay: FFA2 counterscreen, cAMP assay; type: cell-based; conditions: 10 μM
T2 construct: expressed in transfected cells; host or cells: Flp-In T-REx 293, doxycycline-induced
T2 sequence (O15552 1-330): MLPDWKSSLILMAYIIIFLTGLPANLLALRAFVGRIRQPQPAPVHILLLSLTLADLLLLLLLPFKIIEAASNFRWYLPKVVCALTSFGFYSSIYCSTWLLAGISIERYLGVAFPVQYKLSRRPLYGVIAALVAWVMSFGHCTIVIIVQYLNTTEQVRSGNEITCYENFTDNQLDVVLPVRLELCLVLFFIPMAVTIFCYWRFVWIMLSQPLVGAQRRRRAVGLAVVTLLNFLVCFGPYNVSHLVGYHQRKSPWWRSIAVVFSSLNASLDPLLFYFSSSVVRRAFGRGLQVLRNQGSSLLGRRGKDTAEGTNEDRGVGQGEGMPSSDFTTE
Experimental: Counter screening against FFA1, FFA2 , FF A4 and GPR84 […]
Counter screening for FFA2 was carried out using a cAMP assay. Flp-In T-Re x 293 cells generated to stably express human FFA2 tagged at is C-terminal with eYFP were first treated with doxycycline (100 ng/mL) overnight to induce receptor expressi on. Cells were then detached and used directly in an HT R-FRET cAMP assay (CisBio) according to the manufacturer’s protocol and measured using a Pherastar FS plate reader (BMG Labtech, Aylesbury, UK). For these experiments, 2000 cells were used per well in a low volume 384-well plate and compounds were tested against their ability to inhibit the cAMP response to 1 µM forskolin for 30 min. […]

[5] = Stability toward mouse liver microsomes; conditions: remaining after 40 min incubation with MLMs
Experimental: The study was performed by Bienta (www.bienta.net). Mouse hepatic microsomes were isolated from pooled and perfused livers of male BALB/c mice (n = 50). Isolation was performed according to the standard protocol.[36]
Microsomal incubations were carried out in 96-well plates in 5 aliquots of 40 μL each (one for each time point). Liver microsomal incubation medium comprised PBS (100 mM, pH 7.4), MgCl2 (3.3 mM), NADPH (3 mM), glucose-6-phosphate (5.3 mM), and glucose-6-phosphate dehydrogenase (0.67 units/mL) with 0.42 mg of liver microsomal protein per ml. In the control reactions, the NADPH-cofactor system was substituted with PBS. […] Each reaction was performed in duplicates. Five time points over 40 min were analyzed. The reactions were stopped by adding 12 volumes of 90% acetonitrile–water to incubation aliquots, followed by protein sedimentation by centrifuging at 5500 rpm for 3 min. […]. Supernatants were analyzed using HPLC-MS/MS on an API 3000 PE instrument.

[6] = target: T3, Cav1.2 (L-type) Human Calcium Ion Channel (Homo sapiens, UniProt Q13936); assay: Cav1.2 (L-type) calcium ion channel binding assay, Panlabs; conditions: 10 μM
T3 construct: Panlabs
T3 sequence (Q13936 whole entry): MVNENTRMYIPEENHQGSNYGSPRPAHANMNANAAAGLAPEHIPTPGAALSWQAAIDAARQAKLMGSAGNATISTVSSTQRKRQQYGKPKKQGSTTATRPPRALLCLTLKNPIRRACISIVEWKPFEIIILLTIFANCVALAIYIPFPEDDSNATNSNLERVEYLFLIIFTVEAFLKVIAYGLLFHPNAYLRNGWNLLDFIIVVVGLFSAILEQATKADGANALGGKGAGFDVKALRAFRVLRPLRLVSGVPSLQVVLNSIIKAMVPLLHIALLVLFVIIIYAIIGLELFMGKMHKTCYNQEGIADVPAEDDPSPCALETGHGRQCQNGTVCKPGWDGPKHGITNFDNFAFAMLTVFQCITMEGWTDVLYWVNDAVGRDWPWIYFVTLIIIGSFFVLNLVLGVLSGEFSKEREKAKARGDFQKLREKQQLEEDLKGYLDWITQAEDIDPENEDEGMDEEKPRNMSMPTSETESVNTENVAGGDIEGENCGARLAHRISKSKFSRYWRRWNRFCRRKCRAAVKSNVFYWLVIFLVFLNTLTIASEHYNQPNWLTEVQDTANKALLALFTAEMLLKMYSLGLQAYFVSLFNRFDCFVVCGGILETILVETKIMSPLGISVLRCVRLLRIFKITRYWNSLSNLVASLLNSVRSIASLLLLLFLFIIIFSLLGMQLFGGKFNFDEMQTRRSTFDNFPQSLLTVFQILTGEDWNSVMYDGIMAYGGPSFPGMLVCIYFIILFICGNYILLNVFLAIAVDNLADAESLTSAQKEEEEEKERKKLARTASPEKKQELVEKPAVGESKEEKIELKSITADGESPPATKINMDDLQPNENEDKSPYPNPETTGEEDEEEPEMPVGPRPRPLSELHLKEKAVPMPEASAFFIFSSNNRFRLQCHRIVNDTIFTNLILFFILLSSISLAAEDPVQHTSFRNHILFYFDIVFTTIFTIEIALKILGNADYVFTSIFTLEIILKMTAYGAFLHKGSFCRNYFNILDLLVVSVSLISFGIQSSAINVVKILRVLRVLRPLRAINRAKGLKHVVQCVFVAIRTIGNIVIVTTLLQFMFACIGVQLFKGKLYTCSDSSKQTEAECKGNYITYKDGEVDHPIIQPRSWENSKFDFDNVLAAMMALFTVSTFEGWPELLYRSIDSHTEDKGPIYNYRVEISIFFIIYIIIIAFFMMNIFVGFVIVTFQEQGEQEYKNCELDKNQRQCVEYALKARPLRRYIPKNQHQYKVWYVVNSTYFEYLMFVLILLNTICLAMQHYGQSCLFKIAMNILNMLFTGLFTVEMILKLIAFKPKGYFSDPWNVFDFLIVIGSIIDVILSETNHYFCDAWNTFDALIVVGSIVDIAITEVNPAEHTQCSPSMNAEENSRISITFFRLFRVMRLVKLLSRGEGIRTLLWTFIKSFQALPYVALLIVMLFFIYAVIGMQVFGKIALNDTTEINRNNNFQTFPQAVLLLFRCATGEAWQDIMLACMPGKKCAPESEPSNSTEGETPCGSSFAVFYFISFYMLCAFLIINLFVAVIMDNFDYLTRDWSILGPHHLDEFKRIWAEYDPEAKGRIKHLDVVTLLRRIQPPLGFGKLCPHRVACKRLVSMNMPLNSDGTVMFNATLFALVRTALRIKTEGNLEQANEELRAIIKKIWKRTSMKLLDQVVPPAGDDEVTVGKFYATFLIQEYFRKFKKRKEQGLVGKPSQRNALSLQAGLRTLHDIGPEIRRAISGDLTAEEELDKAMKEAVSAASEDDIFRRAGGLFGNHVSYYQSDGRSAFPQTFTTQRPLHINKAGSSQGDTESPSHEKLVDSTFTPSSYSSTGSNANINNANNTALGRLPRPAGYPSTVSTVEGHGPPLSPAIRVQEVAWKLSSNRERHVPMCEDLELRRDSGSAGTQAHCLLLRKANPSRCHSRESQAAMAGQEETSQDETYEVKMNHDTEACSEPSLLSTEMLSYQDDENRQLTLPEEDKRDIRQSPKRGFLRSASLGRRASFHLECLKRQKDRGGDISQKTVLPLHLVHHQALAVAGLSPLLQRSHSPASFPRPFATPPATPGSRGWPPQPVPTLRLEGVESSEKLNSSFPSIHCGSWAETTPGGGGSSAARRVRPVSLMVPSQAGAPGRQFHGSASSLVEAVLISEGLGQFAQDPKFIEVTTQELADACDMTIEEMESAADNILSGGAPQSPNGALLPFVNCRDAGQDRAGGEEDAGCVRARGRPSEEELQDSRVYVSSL
T3 sequence (Q08289 whole entry partner): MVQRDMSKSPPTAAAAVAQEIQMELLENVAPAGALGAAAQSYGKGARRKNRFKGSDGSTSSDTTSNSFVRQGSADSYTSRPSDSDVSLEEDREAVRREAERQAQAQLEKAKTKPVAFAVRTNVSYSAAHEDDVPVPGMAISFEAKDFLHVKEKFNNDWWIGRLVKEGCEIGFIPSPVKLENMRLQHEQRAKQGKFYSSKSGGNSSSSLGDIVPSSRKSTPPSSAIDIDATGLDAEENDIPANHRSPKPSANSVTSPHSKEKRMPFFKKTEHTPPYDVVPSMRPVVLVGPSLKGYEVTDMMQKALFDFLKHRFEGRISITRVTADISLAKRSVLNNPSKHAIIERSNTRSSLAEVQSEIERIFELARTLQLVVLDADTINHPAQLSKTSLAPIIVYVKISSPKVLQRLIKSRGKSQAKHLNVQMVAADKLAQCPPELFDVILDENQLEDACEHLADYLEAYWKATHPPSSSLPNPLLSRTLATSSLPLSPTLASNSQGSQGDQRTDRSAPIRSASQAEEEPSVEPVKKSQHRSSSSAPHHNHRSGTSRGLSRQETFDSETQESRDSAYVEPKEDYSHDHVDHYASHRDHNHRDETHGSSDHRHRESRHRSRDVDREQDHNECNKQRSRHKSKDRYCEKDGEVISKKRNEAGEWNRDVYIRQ
T3 sequence (P54289 25-946 partner limits assumed): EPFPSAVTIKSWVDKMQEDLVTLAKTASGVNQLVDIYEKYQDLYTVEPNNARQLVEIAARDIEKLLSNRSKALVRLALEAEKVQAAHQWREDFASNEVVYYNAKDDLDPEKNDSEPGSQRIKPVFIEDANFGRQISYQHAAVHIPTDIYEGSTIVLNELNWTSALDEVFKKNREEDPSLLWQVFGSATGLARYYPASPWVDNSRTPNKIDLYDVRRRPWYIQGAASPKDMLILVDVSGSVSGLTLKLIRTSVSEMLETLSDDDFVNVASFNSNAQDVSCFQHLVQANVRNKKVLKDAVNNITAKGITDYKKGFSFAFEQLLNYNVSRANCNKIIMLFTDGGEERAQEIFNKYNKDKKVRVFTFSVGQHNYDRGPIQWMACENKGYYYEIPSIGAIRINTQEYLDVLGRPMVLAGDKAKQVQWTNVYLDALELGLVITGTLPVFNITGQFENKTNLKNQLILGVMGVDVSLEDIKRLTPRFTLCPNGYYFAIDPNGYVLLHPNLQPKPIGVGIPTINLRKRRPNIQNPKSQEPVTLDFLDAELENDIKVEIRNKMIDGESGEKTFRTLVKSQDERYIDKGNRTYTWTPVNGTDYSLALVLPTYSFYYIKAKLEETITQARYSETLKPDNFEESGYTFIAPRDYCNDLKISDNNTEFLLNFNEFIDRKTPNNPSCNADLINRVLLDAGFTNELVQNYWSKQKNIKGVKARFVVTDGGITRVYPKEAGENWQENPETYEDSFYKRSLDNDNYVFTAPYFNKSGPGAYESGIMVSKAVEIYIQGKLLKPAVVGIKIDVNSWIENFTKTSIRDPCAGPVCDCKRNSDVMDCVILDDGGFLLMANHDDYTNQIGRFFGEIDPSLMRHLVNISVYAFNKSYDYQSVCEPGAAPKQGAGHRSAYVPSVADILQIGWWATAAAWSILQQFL
T3 sequence (P54289 947-1103 partner limits assumed): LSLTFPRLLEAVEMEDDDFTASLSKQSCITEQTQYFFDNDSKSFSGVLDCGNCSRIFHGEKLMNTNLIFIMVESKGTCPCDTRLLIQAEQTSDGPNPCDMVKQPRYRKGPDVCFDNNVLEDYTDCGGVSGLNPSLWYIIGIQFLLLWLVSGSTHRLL
Experimental: Counterscreen data on 1, 16, 57 and 63
Cav1.2 (L-type) Human Calcium Ion Channel Binding -20% 13% 12% 1%
(Antagonist Radioligand) Assay, Panlabs, 10 µM

[7] = target: T4, rFFA3 (Rattus norvegicus, UniProt B2GV46); assay: cAMP assay, rFFA3; type: cell-based
T4 construct: expressed in transfected cells; host or cells: HEK293 Flp-In T-REx, doxycycline-induced
T4 sequence (B2GV46 1-319): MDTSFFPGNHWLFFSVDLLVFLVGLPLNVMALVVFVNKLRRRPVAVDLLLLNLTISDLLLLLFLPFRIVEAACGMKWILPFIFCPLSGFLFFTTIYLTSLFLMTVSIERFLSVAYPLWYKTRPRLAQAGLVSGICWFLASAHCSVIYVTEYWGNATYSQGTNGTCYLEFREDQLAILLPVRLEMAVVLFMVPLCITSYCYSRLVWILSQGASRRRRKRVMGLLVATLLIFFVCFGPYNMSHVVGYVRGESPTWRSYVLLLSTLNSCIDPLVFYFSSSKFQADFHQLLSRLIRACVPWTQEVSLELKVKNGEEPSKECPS
Experimental: With several compounds with improved properties in hand, we wished to investigate the suitability of the compounds as tools for in vivo studies in rodents. Because of the moderate potency and low solubility associated with this series, it has been presumed that they are poorly suited as in vivo tools.
HEK293 Flp-In T-Rex cells stably transfected with FFA3-eYFP receptors were incubated overnight with doxycycline to induce expression, then harvested, and cryopreserved. On the day of each experiment, cells were thawed and resuspended in stimulation buffer. Assays were carried out using a 384-well plate format with 3000 cells/well using the CisBio cAMP GS dynamic kit as per manufacturer’s protocol. Compounds were tested for the ability to inhibit 0.3 μM forskolin-induced cAMP production after co-incubation for 1 h. Reactions were measured using a PHERAstar FS plate reader (BMGLabtech, Aylesbury, UK).

SMILES | logD [1] | Emax [2] | PAM pEC50 ([2]; cAMP assay in the presence of 1 μM propionate) | cAMP pEC50 [2] | solubility [3] | activity at FFA2 [4] | MLM (%) remaining [5] | Cav1.2 (L-type) binding (antagonist radioligand) [6] | activity at L-type calcium ion channels [6] | cAMP pEC50 (rFFA3) [7] | logD at 24 h [1] | EC50 [2] | increase of solubility relative to 16 ([3]; kinetic solubility) | allosteric effect on propionate response ([2]; cAMP assay together with propionate (56: 30 μM compound; 62, 63: 1 μM propionate))
CC1=C(C(=O)Nc2ccccc2C)C(c2ccco2)C2=C(CCCC2=O)N1 (stereo not shown) [Compound 1, 4-(Furan-2-yl)-2-methyl-5-oxo-N-(o-tolyl)-1,4,5,6,7,8-hexahydroquinoline-3-carboxamide, reference compound] | 2.05 | 105% | 6.27 ± 0.15 | 6.28 ± 0.06 | 190 µM (≈ 68.9 µg/mL) | No significant activity | 52% | -20% | No significant activity | 5.87 ± 0.07 | – | – | – | –
CC1=C(C(=O)Nc2cc(Cl)ccc2Cl)C(c2ccco2)C2=C(CCCC2=O)N1 (stereo not shown) [Compound 16, reference compound] | 3.19 | 106% | – | 6.89 ± 0.02 | 5 µM (≈ 2.09 µg/mL) | No significant activity | 1−2% and 1% | 13% | No significant activity | 6.34 ± 0.04 | – | – | – | –
CCCC1C(C(=O)Nc2cc(Cl)ccc2Cl)=C(C)NC2=C1C(=O)CCC2 (stereo not shown) [Compound 57, N-(2,5-Dichlorophenyl)-2-methyl-5-oxo-4-propyl-1,4,5,6,7,8-hexahydroquinoline-3-carboxamide] | – | 113% | – | 6.84 ± 0.02 | 33 µM (≈ 13 µg/mL) | No significant activity | 1−2% and 1% | 12% | No significant activity | – | 4.25 | 145 nM | 6 fold | –
CC1=C(C(=O)Nc2cc(Cl)ccc2Cl)C(C2CCCC2)C2=C(CCCC2=O)N1 (stereo not shown) [Compound 63, 4-Cyclopentyl-N-(2,5-dichlorophenyl)-2-methyl-5-oxo-1,4,5,6,7,8-hexahydroquinoline-3-carboxamide] | > 4.3 | 99% | – | 6.79 ± 0.05 | 9 µM (≈ 3.77 µg/mL) | No significant activity | 41% | 1% | No significant activity | 6.39 ± 0.03 | – | 162 nM | – | did not reveal significant PAM effects
